Reference: the supplement of paper PMC10307832

Columns and labels:
Test in all cases: relative viability (nuclei count vs DMSO), 5 days (fraction); higher = more cells survive
[1] = compound: CCn1c(-c2nonc2N)nc2c(C#CC(C)(C)O)ncc(OC[C@H]3CCCNC3)c21 + CC1(C)CCC(c2ccc(Cl)cc2)=C(CN2CCN(c3ccc(C(=O)NS(=O)(=O)c4ccc(N[C@H](CCN5CCOCC5)CSc5ccccc5)c(S(=O)(=O)C(F)(F)F)c4)cc3)CC2)C1 [Navitoclax] (partner 0.5 µM)
Procedure, shortened: (§1)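 Each reported value is a median over duplicate plates. It expresses relative viability: treated-well nuclei count divided by vehicle-well nuclei count. Lung cancer cell lines in 1536-well plates were dosed by pin tool a day after seeding, alone with one drug or with a fixed anchor-drug dose plus five library-drug doses (not always all listed) in √10 steps, and nuclei were counted after 5 days.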

[2] = compound: CCn1c(-c2nonc2N)nc2c(C#CC(C)(C)O)ncc(OC[C@H]3CCCNC3)c21 + C[C@@H](Oc1cc(-c2cnn(C3CCNCC3)c2)cnc1N)c1c(Cl)ccc(F)c1Cl [Crizotinib] (partner 1 µM)
Procedure, shortened: as §1

[3] = compound: CCn1c(-c2nonc2N)nc2c(C#CC(C)(C)O)ncc(OC[C@H]3CCCNC3)c21 + Nc1nc2[nH]cc(CCc3ccc(C(=O)N[C@@H](CCC(=O)O)C(=O)O)cc3)c2c(=O)[nH]1 [Pemetrexed] (partner 0.2 µM)
Procedure, shortened: as §1

BAM7 + Tozasertib = compound: CCOC1=CC=CC=C1N=NC2=C(NN(C2=O)C3=NC(=CS3)C4=CC=CC=C4)C [BAM7] + Cc1cc(Nc2cc(N3CCN(C)CC3)nc(Sc3ccc(NC(=O)C4CC4)cc3)n2)n[nH]1 [Tozasertib] (partner 0.1 µM)
Procedure, shortened: as §1

Cell Line	relative viability ([1]; first compound 0.01 µM)	relative viability ([1]; first compound 0.03162 µM)	relative viability ([1]; first compound 0.1 µM)	relative viability ([1]; first compound 0.3162 µM)	relative viability ([1]; first compound 1 µM)	relative viability ([2]; first compound 0.01 µM)	relative viability ([2]; first compound 0.03162 µM)	relative viability ([2]; first compound 0.1 µM)	relative viability ([2]; first compound 0.3162 µM)	relative viability ([2]; first compound 1 µM)	relative viability ([3]; first compound 0.01 µM)	relative viability ([3]; first compound 0.03162 µM)	relative viability ([3]; first compound 0.1 µM)	relative viability ([3]; first compound 0.3162 µM)	relative viability ([3]; first compound 1 µM)	relative viability (BAM7 + Tozasertib; first compound 0.5 µM)	relative viability (BAM7 + Tozasertib; first compound 5 µM)	relative viability (BAM7 + Tozasertib; first compound 15.81 µM)	relative viability (BAM7 + Tozasertib; first compound 50 µM)
NCI-H2228	0.728	0.673	0.791	0.634	0.787	0.552	0.56	0.476	0.378	0.33	0.336	0.302	0.328	0.339	0.318	0.239	0.23	0.208	0.286
NCI-H647	1.16	0.96	1.14	1.08	1.14	1.04	1.31	1.11	1.07	0.92	0.196	0.168	0.179	0.163	0.142	0.309	0.333	0.294	0.247
SK-MES-1	1.22	1.22	1.18	1.22	1.2	0.989	0.982	0.963	0.909	0.982	0.971	0.945	0.947	0.909	0.983	1.03	0.907	0.752	0.772
